Assays:
[1] = tested on: silver nitrate-induced arteriothromboembolia in male Wistar-Shizuoka rats; assay: Test on Inhibition of Silver Nitrate-Induced Arteriothromboembolia in Rats; assay type: in vivo; conditions: for Number of Obstruction Case/Number of Experiments: control 23/26; for Percent Obstruction: control 88%
Description: Male Wistar -Shizuoka rats weighing 270±20 g were anesthetized with urethane (1.5 g/kg) intraperitoneally. Each animal was fixed on its back, and a venous cannula and an arterial cannula were inserted into the left carotid vein and the left femoral artery, respectively. An abdominal incision was made, the intestinal tract was put aside so that the descending abdominal aorta could be seen, the surrounding connective tissues were removed, the descending aorta was detached to a length of about 1 cm, and the detached descending aorta was put on a globe of 8 cm in diameter. A solvent (0.1 ml; physiological saline containing 0.05N sodium hydroxide) or a drug solution (0.1 ml) in the solvent was injected via the cannulated carotid vein per 100 g of body weight. Three minutes later, a 30% silver nitrate aqueous solution was dropped on the detached descending abdominal aorta. Five minutes later, the globe was removed, and the affected site was washed three times with physiological saline to stop the reaction. After the elapse of 30 minutes from the stopping of the reaction, the blood pressure of the femoral artery was measured, and the pressure fall was taken as an indication of obstruction of the descending arterial. Significance of the difference in degree of the obstruction between the control group (only the solvent was administered) and the test group was assayed by X^2 -assay.

[2] = tested on: dd male mice; assay: Acute Toxicity Test (minimum lethal dose, MLD); assay type: in vivo; conditions: dd male mice, mortality after 7 days
Experimental: A test compound was given to dd male mice weighing 20±1 g (3 mice per group) per os. (p.o.; 300 mg/kg) or intraperitoneally (i.p.; 100 mg/kg). The mortality after 7 days from the administration was considered to determine the minimum lethal dose (MLD).

[3] = target: T1, thromboxane synthase (TXA2 synthase), bovine platelet microsome (Bos taurus, UniProt Q2KIG5); assay: Test on Inhibition of TXA2 Biosynthesis (bovine platelet microsome, TXB2 by radioimmunoassay); assay type: biochemical; conditions: for IC50: bovine platelet microsome, pH 7.4, prostaglandin H2 substrate
T1 construct: bovine platelet microsome; from tissue; host or cells: bovine platelets (microsome)
T1 sequence (Q2KIG5 1-533): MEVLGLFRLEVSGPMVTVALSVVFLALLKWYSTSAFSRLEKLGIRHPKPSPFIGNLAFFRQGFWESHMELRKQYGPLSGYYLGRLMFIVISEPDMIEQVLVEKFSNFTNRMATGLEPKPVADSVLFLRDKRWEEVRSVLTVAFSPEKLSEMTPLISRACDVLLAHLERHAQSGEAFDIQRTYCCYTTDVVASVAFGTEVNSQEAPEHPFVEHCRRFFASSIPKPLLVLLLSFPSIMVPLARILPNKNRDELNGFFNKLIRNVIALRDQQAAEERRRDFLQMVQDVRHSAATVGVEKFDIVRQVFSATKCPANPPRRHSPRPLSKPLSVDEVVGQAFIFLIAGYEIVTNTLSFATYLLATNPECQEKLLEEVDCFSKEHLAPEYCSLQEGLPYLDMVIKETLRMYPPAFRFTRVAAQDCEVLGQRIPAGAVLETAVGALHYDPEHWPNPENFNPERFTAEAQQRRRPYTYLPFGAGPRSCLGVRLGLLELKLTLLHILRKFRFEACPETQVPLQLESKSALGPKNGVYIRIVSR
Experimental: A mixture of 70 μl of bovine platelet microsome [protein: 40 μg; 100 mM tris-HCl buffer (pH=7.4)] and 10 μl of a test compound solution (100 mM tris-HCl buffer containing 10% methanol) was allowed to stand at 0° C. for 5 minutes, and 20 μl of a prostaglandin H2 solution (100 mM tris-HCl buffer supplemented with acetone containing 0.1 nmol of prostaglandin H2) was added thereto as a substrate.
The amount of thromboxane B2 (TXB2) (stable degradation product of TXA2) produced in the system was determined by radioimmunoassay [F. A. Fitzpatrick et al., Methods in Enzymology, Vol. 86, p.286 (1982)].
Inhibition of TXB2 synthesis was evaluated by IC50 (50% inhibitory concentration) or percent inhibition as calculated from equation described below, and the results obtained are shown in Table 1. [formula]

Structure (SMILES) | Acute Toxicity (MLD) ip [2] | Acute Toxicity (MLD) po [2] | IC50 [3] | further results
O=C(O)CCCC/C=C(\c1ccccc1)c1cccnc1 [CV-4151, reference compound] | – | – | – | Number of Obstruction Case/Number of Experiments ([1]; 0.3 mg/kg i.v.): 4/6; Percent Obstruction ([1]; 0.3 mg/kg i.v.): 67%; Number of Obstruction Case/Number of Experiments ([1]; 1.0 mg/kg i.v.): 4/8; Percent Obstruction ([1]; 1.0 mg/kg i.v.): 50%; Number of Obstruction Case/Number of Experiments ([1]; 3.0 mg/kg i.v.): 1/5; Percent Obstruction ([1]; 3.0 mg/kg i.v.): 20%
O=C(O)CCCCC=C1c2cc(Br)ccc2NC(=O)c2ccncc21 [Compound I-1, 9-Bromo-11-(5-carboxypentylidene)-5,11-dihydropyrido-[4,3-c][1]benzazepin-5(6H)-one] | > 100 mg/kg | > 300 mg/kg | 32 nM | –
Cc1cccc2c1NC(=O)c1ccncc1C2=CCCCCC(=O)O [Compound I-2, 11-(5-Carboxypentylidene)-7-methyl-5,11-dihydropyrido-[4,3-c][1]benzazepin-5(6H)-one] | > 100 mg/kg | > 300 mg/kg | – | inhibition at 0.1 µM ([3]; 0.1 μM (footnote *), read-out: Inhibition of TXA2 Biosynthesis, Percent inhibition at 0.1 μM): 41%
COc1ccc2c(c1)C(=CCCCCC(=O)O)c1cnccc1C(=O)N2C [Compound I-3, 11-(5-Carboxypentylidene)-9-methoxy-6-methyl-5,11-dihydropyrido-[4,3-c][1]benzazepin-5(6H)-one] | > 100 mg/kg | > 300 mg/kg | 400 nM | –
O=C(O)CCCC=C1c2ccccc2NC(=O)c2ccncc21 [Compound I-4, 11-(4-Carboxybutylidene)-5,11-dihydropyrido[4,3-c][1]-benzazepin-5(6H)-one] | > 100 mg/kg | > 300 mg/kg | 250 nM | –
O=C(O)CCCCCCC=C1c2ccccc2NC(=O)c2ccncc21 [Compound I-5, 11-(7-Carboxyheptylidene)-5,11-dihydropyrido[4,3-c][1]-benzazepin-5(6H)-one] | > 100 mg/kg | > 300 mg/kg | 130 nM | –
CSC1=Nc2ccccc2C(=CCCCCC(=O)O)c2cnccc21 [Compound I-6, 11-(5-Carboxypentylidene)-5-thiomethyl-11(H)-pyrido-[4,3-c][1]benzazpin] | > 100 mg/kg | > 300 mg/kg | 5 nM | –
C/C=C/C1=Cc2ccccc2/C(=C/CCCCC(=O)O)c2cnccc21 [Compound I-7, (Z)-11-(5-Carboxypentylidene)-5-[(E)-1-propen-1-yl]-(H)-pyrido[3,4-b]benzcycloheptene] | > 100 mg/kg | > 300 mg/kg | 21 nM | –
O=C(O)CCCC/C=C1\c2ccccc2NC(=O)c2ccncc21 [Compound I-10E, (E)-11-(5-Carboxypentylidene)-5,11-dihydropyrido[4,3-c][1]benzazepin-5(6H)-one] | > 100 mg/kg | > 300 mg/kg | 21 nM | –
O=C(O)CCCC/C=C1/c2ccccc2NC(=O)c2ccncc21 [Compound I-10Z, (Z)-11-(5-carboxypentylidene)-5,11-dihydropyrido[4,3-c][1]benzazepin-5(6H)-one] | > 100 mg/kg | > 300 mg/kg | 16 nM | –
O=C(O)CCCC/C=C1/c2cnccc2C(=O)N(Cc2ccccc2)c2ccccc21 [Compound I-11E, (E)-6-Benzyl-11-(5-carboxypentylidene)-5,11-dihydropyrido[4,3-c][1]benzazepin-5(6H)-one] | > 100 mg/kg | > 300 mg/kg | 8.3 nM | –
O=C(O)CCCC/C=C1\c2cnccc2C(=O)N(Cc2ccccc2)c2ccccc21 [Compound I-11Z, (Z)-6-benzyl-11-(5-carboxypentylidene)-5,11-dihydropyrido[4,3-c][1]benzazepin-5(6H)-one] | > 100 mg/kg | > 300 mg/kg | 41 nM | –
CN1C(=O)c2ccncc2/C(=C/CCCCC(=O)O)c2ccccc21 [Compound I-12E, (E)-11-(5-Carboxypentylidene)-6-methyl-5,11-dihydropyrido[4,3-c][1]benzazepin-5(6H)-one] | > 100 mg/kg | > 300 mg/kg | 20 nM | –
COC1=Nc2ccncc2/C(=C\CCCCC(=O)O)c2ccccc21 [Compound I-13Z, (Z)-11-(5-carboxypentylidene)-6-methoxy-11H-pyrido[4,3-c][2]benzazepin] | > 100 mg/kg | > 300 mg/kg | 3.5 nM | –
O=C(O)CCCC/C=C1/c2cnccc2NC(=O)c2ccccc21 [Compound I-14E, (E)-11-(5-Carboxypentylidene)-6,11-dihydropyrido[4,3-c][2]benzazepin-6(5H)-one] | > 100 mg/kg | > 300 mg/kg | 22 nM | –
O=C(O)CCCC/C=C1\c2cnccc2NC(=O)c2ccccc21 [Compound I-14Z, (Z)-11-(5-Carboxypentylidene)-6,11-dihydropyrido[4,3-c][2]benzazepin-6(5H)-one] | > 100 mg/kg | > 300 mg/kg | 451 nM | –
O=C(O)CCCCC=C1c2cnccc2CNc2ccccc21 [Compound I-15, 11-(5-Carboxypentylidene)-11H-5,6-dihydropyrido[4,3-c][1]benzazepin] | > 100 mg/kg | > 300 mg/kg | 22 nM | –
CSC1=Nc2ccccc2C(=CCCCCC(=O)O)c2ccncc21 [Compound I-18, 5-(5-Carboxypentylidene)-11-thiomethyl-5H-pyrido[3,4-c][1]benzazepin] | > 100 mg/kg | > 300 mg/kg | 100 nM | –
O=C(O)CCCC/C=C1/c2ccccc2NC(=O)c2cnccc21 [Compound I-19E, (E)-5-(5-Carboxypentylidene)-5,11-dihydropyrido[3,4-c][1]benzazepin-11(10H)-one] | > 100 mg/kg | > 300 mg/kg | – | inhibition at 10 µM [3]: 13%
O=C(O)CCCC/C=C1\c2ccccc2NC(=O)c2cnccc21 [Compound I-19Z, (Z)-5-(5-carboxypentylidene)-5,11-dihydropyrido[3,4-c][1]benzazepin-11(10H)-one] | > 100 mg/kg | > 300 mg/kg | – | inhibition at 10 µM [3]: 8%
CN1C(=O)c2cnccc2/C(=C\CCCCC(=O)O)c2ccccc21 [Compound I-20E, (E)-5-(5-Carboxypentylidene)-10-methyl-5,11-dihydropyrido[3,4-c][1]benzazepin-11(10H)-one] | > 100 mg/kg | > 300 mg/kg | – | inhibition at 10 µM [3]: 10%
CN1C(=O)c2cnccc2/C(=C/CCCCC(=O)O)c2ccccc21 [Compound I-20Z, (Z)-5-(5-carboxypentylidene)-10-methyl-5,11-dihydropyrido[3,4-c][1]benzazepin-11(10H)-one] | > 100 mg/kg | > 300 mg/kg | – | inhibition at 10 µM [3]: -23%
C/C(=C\c1ccc(Cc2cccnc2)cc1)C(=O)O [OKY-1581, reference compound] | – | – | – | Number of Obstruction Case/Number of Experiments ([1]; 0.3 mg/kg i.v.): 5/5; Percent Obstruction ([1]; 0.3 mg/kg i.v.): 100%; Number of Obstruction Case/Number of Experiments ([1]; 1.0 mg/kg i.v.): 4/6; Percent Obstruction ([1]; 1.0 mg/kg i.v.): 67%; Number of Obstruction Case/Number of Experiments ([1]; 3.0 mg/kg i.v.): 0/3; Percent Obstruction ([1]; 3.0 mg/kg i.v.): 0%

Source: patent US4971964A, “Pyridine derivatives” (priority 1988, dated 1990)
